{"source": "paper PMC6201084", "about": "(Antimicrobial Agents and Chemotherapy, 2018)", "key": {"[1]": {"target": "neuraminidase (NA) of influenza B/Perth/136/2015 (MUT-Y273, H273Y NA substitution) (Influenza B virus, UniProt A0A1S5RAG6, H273Y)", "format": "biochemical"}, "[2]": {"target": "neuraminidase (NA) of influenza B/Singapore/GP702/2015 (MUT-N197, D197N NA substitution) (Influenza B virus, UniProt A0A1S5RAG6, D197N)", "format": "biochemical"}}, "note": "Values joined by “and” are separate entries in the source; they are usually repeats but may differ in a detail not shown here. Equal entries are not always repeated.", "data": [{"smiles": "CCC(CC)[C@H](NC(C)=O)[C@@H]1[C@H](O)[C@@H](C(=O)O)C[C@H]1N=C(N)N", "note": "[Peramivir, peramivir]", "values": [{"measurement": "Fold difference in IC50 from corresponding wild-type value", "setting": "[1]", "result": "85 fold and 80.9 ± 6.8 (85)^b fold"}, {"measurement": "IC50", "setting": "[1]; read-out: IC50 (nM), mean ± SD", "result": 80.9, "unit": "nM"}, {"measurement": "Fold difference in IC50 from corresponding wild-type value", "setting": "[2]", "result": "3.0 ± 0.7 (3) fold"}, {"measurement": "IC50", "setting": "[2]; read-out: IC50 (nM), mean ± SD", "result": 3, "unit": "nM"}]}]}
